Each compound was assayed against T1, human ferroportin (Homo sapiens, UniProt Q9NP59) (assay: Biological in-vitro ferroportin internalization assay (luciferase reporter)). Conditions: average pEC50; stably-transfected CHO cell line expressing human ferroportin tagged to a luciferase reporter; 6 h incubation with test compound.
T1 construct: luciferase reporter (read with the Nano-Glo Luciferase Assay System); expressed in transfected cells; host or cells: CHO cells, stably transfected, expression induced with doxycycline
T1 sequence (Q9NP59 1-571): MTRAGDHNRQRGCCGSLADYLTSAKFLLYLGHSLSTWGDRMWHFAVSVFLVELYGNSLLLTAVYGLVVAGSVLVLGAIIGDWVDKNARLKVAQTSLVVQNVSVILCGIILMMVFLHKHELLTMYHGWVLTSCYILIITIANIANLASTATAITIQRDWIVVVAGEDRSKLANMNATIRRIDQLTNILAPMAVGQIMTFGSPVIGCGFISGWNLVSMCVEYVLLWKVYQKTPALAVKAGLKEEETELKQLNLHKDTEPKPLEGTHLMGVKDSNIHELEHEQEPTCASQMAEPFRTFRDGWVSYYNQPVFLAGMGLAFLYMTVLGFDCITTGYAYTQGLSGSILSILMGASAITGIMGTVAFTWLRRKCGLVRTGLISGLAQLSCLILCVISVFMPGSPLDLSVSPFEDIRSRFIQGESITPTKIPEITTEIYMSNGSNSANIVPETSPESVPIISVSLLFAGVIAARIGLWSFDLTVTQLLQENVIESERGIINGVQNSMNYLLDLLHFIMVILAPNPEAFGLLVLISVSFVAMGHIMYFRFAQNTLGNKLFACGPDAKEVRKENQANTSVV
Assay type: cell-based
How it was run: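 Stably transfected CHO cells expressing luciferase-tagged human ferroportin, plated 24 h with ferric ammonium citrate and induced with doxycycline for 24 h. Compounds incubated 6 h, then luciferase activity measured by Nano-Glo; average pEC50 reported.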

Row | Structure (SMILES) | pEC50
1 | CN(c1nc(-c2ccccn2)nc2c1CCC2)[C@H](COC(C)(C)C)C(=O)NC(C)(C)C [Compound 121, (2R)-3-(tert-butoxy)-N-tert-butyl-2-{methyl[2-(pyridin-2-yl)-5H,6H,7H-cyclopenta[d]pyrimidin-4-yl]amino}propanamide] | 7.9
2 | CC(C)NC(=O)CN(C)c1nc(-c2cc(OCCN3CCOCC3)ccn2)nc2c1CCC2 [Compound 430, 2-[methyl(2-{4-[2-(morpholin-4-yl)ethoxy]pyridin-2-yl}-5H,6H,7H-cyclopenta[d]pyrimidin-4-yl)amino]-N-(propan-2-yl)acetamide] | 8
3 | C[C@H](C(=O)Nc1ccc(C(F)(F)F)nc1)N(C)c1nc(-c2cc3ccccc3cn2)nc2c1CCC2 [Compound 274, (2R)-2-{[2-(isoquinolin-3-yl)-5H,6H,7H-cyclopenta[d]pyrimidin-4-yl](methyl)amino}-N-[6-(trifluoromethyl)pyridin-3-yl]propanamide] | 6.8
4 | CN(c1nc(-c2ccccn2)nc2c1CCC2)C1(C(=O)NC2CCCCC2)CC1 [Compound 17, N-cyclohexyl-1-{methyl[2-(pyridin-2-yl)-5H,6H,7H-cyclopenta[d]pyrimidin-4-yl]amino}cyclopropane-1-carboxamide] | 6.6
5 | CN(CC(=O)NC(C)(C)C)c1nc(-c2cc(OCCN3CC[C@H](F)C3)ccn2)nc2c1CCC2 [Compound 474, N-tert-butyl-2-{[2-(4-{2-[(3S)-3-fluoropyrrolidin-1-yl]ethoxy}pyridin-2-yl)-5H,6H,7H-cyclopenta[d]pyrimidin-4-yl](methyl)amino}acetamide] | 8.3
6 | CC(C)NC(=O)CN(C)c1nc(-c2cc(OCC3(O)CCOCC3)ccn2)nc2c1CCC2 [Compound 444, 2-[(2-{4-[(4-hydroxyoxan-4-yl)methoxy]pyridin-2-yl}-5H,6H,7H-cyclopenta[d]pyrimidin-4-yl)(methyl)amino]-N-(propan-2-yl)acetamide] | 7.9
7 | CN(CC(=O)NC1CCCOC1)c1nc(-c2ccccn2)nc2c1CCC2 (centres unmarked) [Compound 26, 2-{methyl[2-(pyridin-2-yl)-5H,6H,7H-cyclopenta[d]pyrimidin-4-yl]amino}-N-(oxan-3-yl)acetamide] | 6.6
8 | COc1ccc2cnc(-c3nc4c(c(N(C)CC(=O)NC(C)(C)C)n3)CCC4)cc2c1 [Compound 261, N-tert-butyl-2-{[2-(6-methoxyisoquinolin-3-yl)-5H,6H,7H-cyclopenta[d]pyrimidin-4-yl](methyl)amino}acetamide] | 7.6
9 | COc1ccnc(-c2nc3c(c(N(C)[C@H](C)C(=O)NC(C)(C)C)n2)CCC3)c1 [Compound 101, (2R)—N-tert-butyl-2-{[2-(4-methoxypyridin-2-yl)-5H,6H,7H-cyclopenta[d]pyrimidin-4-yl](methyl)amino}propanamide] | 8.2
10 | COc1ccnc(-c2nc3c(c(N(C)Cc4nc(-c5ccccc5)co4)n2)CCC3)c1 [Compound 380, 2-(4-methoxypyridin-2-yl)-N-methyl-N-[(4-phenyl-1,3-oxazol-2-yl)methyl]-5H,6H,7H-cyclopenta[d]pyrimidin-4-amine] | 6.6
11 | CN(CC(=O)Nc1ccc(C(F)(F)F)nc1)c1nc(-c2cc3cn[nH]c3cn2)nc2c1CCC2 [Compound 288, 2-[methyl(2-{1H-pyrazolo[3,4-c]pyridin-5-yl}-5H,6H,7H-cyclopenta[d]pyrimidin-4-yl)amino]-N-[6-(trifluoromethyl)pyridin-3-yl]acetamide] | 7.1
12 | COc1ccnc(-c2nc3c(c(N(C)CC(=O)N(C)C(C)(C)C)n2)CCC3)c1 [Compound 156, N-tert-butyl-2-{[2-(4-methoxypyridin-2-yl)-5H,6H,7H-cyclopenta[d]pyrimidin-4-yl](methyl)amino}-N-methylacetamide] | 7.9
13 | CN(CC(=O)NC(C)(C)C)c1nc(-c2cc3occc3cn2)nc2c1CCC2 [Compound 341, N-tert-butyl-2-[(2-{furo[3,2-c]pyridin-6-yl}-5H,6H,7H-cyclopenta[d]pyrimidin-4-yl)(methyl)amino]acetamide] | 7.6
14 | Cc1cncc(NC(=O)CN(C)c2nc(-c3cc4ccccc4cn3)nc3c2CCC3)c1 [Compound 235, 2-{[2-(isoquinolin-3-yl)-5H,6H,7H-cyclopenta[d]pyrimidin-4-yl](methyl)amino}-N-(5-methylpyridin-3-yl)acetamide] | 7.5

The next lines start with the values.

Row | pEC50 | Structure (SMILES)
15 | 7.7 | COc1ccnc(-c2nc3c(c(N(C)[C@H](C)C(=O)NC4CCCCC4)n2)CCC3)c1 [Compound 119, (2R)—N-cyclohexyl-2-{[2-(4-methoxypyridin-2-yl)-5H,6H,7H-cyclopenta[d]pyrimidin-4-yl](methyl)amino}propanamide]
16 | 7.3 | CN(CC(=O)Nc1ccc(F)nc1)c1nc(-c2cc3cn[nH]c3cn2)nc2c1CCC2 [Compound 266, N-(6-fluoropyridin-3-yl)-2-[methyl(2-{1H-pyrazolo[3,4-c]pyridin-5-yl}-5H,6H,7H-cyclopenta[d]pyrimidin-4-yl)amino]acetamide]
17 | 7.8 | CN(CC(=O)NC(C)(C)C)c1nc(-c2cc3cn(C)nc3cn2)nc2c1CCC2 [Compound 336, N-tert-butyl-2-[methyl(2-{2-methyl-2H-pyrazolo[3,4-c]pyridin-5-yl}-5H,6H,7H-cyclopenta[d]pyrimidin-4-yl)amino]acetamide]
18 | 8.1 | CN(CC(=O)NC1CC1)c1nc(-c2cc(OCC(C)(C)O)ccn2)nc2c1CCC2 [Compound 398, N-cyclopropyl-2-({2-[4-(2-hydroxy-2-methylpropoxy)pyridin-2-yl]-5H,6H,7H-cyclopenta[d]pyrimidin-4-yl}(methyl)amino)acetamide]
19 | 8.1 | CC(C)NC(=O)[C@@H](C)N(C)c1nc(-c2cc(OCC(C)(C)O)ccn2)nc2c1CCC2 [Compound 453, (2R)-2-({2-[4-(2-hydroxy-2-methylpropoxy)pyridin-2-yl]-5H,6H,7H-cyclopenta[d]pyrimidin-4-yl}(methyl)amino)-N-(propan-2-yl)propanamide]
20 | 6.9 | CN(CC(=O)N1CCCCC1)c1nc(-c2cc3ccccc3cn2)nc2c1CCC2 [Compound 255, 2-{[2-(isoquinolin-3-yl)-5H,6H,7H-cyclopenta[d]pyrimidin-4-yl](methyl)amino}-1-(piperidin-1-yl)ethan-1-one]
21 | 7.4 | CC(C)NC(=O)[C@H](C)N(C)c1nc(-c2cc(OCCN(C)C)ccn2)nc2c1CCC2 [Compound 434, (2S)-2-[(2-{4-[2-(dimethylamino)ethoxy]pyridin-2-yl}-5H,6H,7H-cyclopenta[d]pyrimidin-4-yl)(methyl)amino]-N-(propan-2-yl)propanamide]
22 | 7.9 | COc1ccc(NC(=O)CN(C)c2nc(-c3cc(OCC4CC4)ccn3)nc3c2CCC3)cn1 [Compound 224, 2-({2-[4-(cyclopropylmethoxy)pyridin-2-yl]-5H,6H,7H-cyclopenta[d]pyrimidin-4-yl}(methyl)amino)-N-(6-methoxypyridin-3-yl)acetamide]
23 | 5.4 | CN(c1nc(-c2ccccn2)nc2c1CCC2)C(C)(C)C(=O)NC(C)(C)C [Compound 19, N-tert-butyl-2-methyl-2-{methyl[2-(pyridin-2-yl)-5H,6H,7H-cyclopenta[d]pyrimidin-4-yl]amino}propanamide]
24 | 7 | CN(C)CCOc1ccnc(-c2nc3c(c(N(C)CC(=O)N[C@@H]4CCOC4)n2)CCC3)c1 [Compound 424, 2-[(2-{4-[2-(dimethylamino)ethoxy]pyridin-2-yl}-5H,6H,7H-cyclopenta[d]pyrimidin-4-yl)(methyl)amino]-N-[(3R)-oxolan-3-yl]acetamide]
25 | 7.2 | CN(CC(=O)NC(C)(C)CCO)c1nc(-c2ccccn2)nc2c1CCC2 [Compound 63, N-(4-hydroxy-2-methylbutan-2-yl)-2-{methyl[2-(pyridin-2-yl)-5H,6H,7H-cyclopenta[d]pyrimidin-4-yl]amino}acetamide]
26 | 7.7 | CN(CC(=O)NC12CC(C1)C2)c1nc(-c2cc(OC3COC3)ccn2)nc2c1CCC2 [Compound 340, N-{bicyclo[1.1.1]pentan-1-yl}-2-[methyl({2-[4-(oxetan-3-yloxy)pyridin-2-yl]-5H,6H,7H-cyclopenta[d]pyrimidin-4-yl})amino]acetamide]
27 | 7 | CN(CC(=O)Nc1cnn(C)c1)c1nc(-c2cc3ccccc3cn2)nc2c1CCC2 [Compound 218, 2-{[2-(isoquinolin-3-yl)-5H,6H,7H-cyclopenta[d]pyrimidin-4-yl](methyl)amino}-N-(1-methyl-1H-pyrazol-4-yl)acetamide]
28 | 7.5 | Cc1ccc(NC(=O)CN(C)c2nc(-c3cc4cc(CO)ccc4cn3)nc3c2CCC3)cn1 [Compound 297, 2-({2-[6-(hydroxymethyl)isoquinolin-3-yl]-5H,6H,7H-cyclopenta[d]pyrimidin-4-yl}(methyl)amino)-N-(6-methylpyridin-3-yl)acetamide]
29 | 8 | CN(CC(=O)N1CCCCC1)c1nc(-c2cc(OCCO)ccn2)nc2c1CCC2 [Compound 263, 2-({2-[4-(2-hydroxyethoxy)pyridin-2-yl]-5H,6H,7H-cyclopenta[d]pyrimidin-4-yl}(methyl)amino)-1-(piperidin-1-yl)ethan-1-one]

Source: patent US11746100B2 (GLOBAL BLOOD THERAPEUTICS, INC., priority 2020, dated 2023)
